*1 amine or outer side, *2 acyl side, *3 side chain or, on linkers, in order; H or OH if unused. Where a SMILES comes first, the peptide text is derived from it. Bridges are numbered along the chain shown (N, C = ends). [ ]: non-standard residue; d: D form. The star is where a group is joined. X100 = CC(=O)NC1CC=C(c2ccc(Cl)cc2C[C@@H](C(=O)[*:2])N(C)[*:1])CC1; X84 = CC(=O)N1CCC(c2ccc(Cl)cc2C[C@@H](C(=O)[*:2])N(C)[*:1])CC1; X26 = CN([C@@H](Cc1cc(F)ccc1-c1cnn(C2CC2)c1)C(=O)[*:2])[*:1]; NMehhhLys(Me) = CN([C@@H](CCCCCCCN(C)[*:3])C(=O)[*:2])[*:1]; X112 = CN([C@@H](Cc1cc(F)ccc1-c1cnn(C)c1)C(=O)[*:2])[*:1]; X22 = CN([C@@H](Cc1cc(Cl)ccc1-c1cnn(C)c1)C(=O)[*:2])[*:1]; X104 = CN([C@@H](Cc1cc(Cl)ccc1C1=CCOCC1)C(=O)[*:2])[*:1]; NMe(hhhLys) = CN([C@@H](CCCCCCCN[*:3])C(=O)[*:2])[*:1]; Cyclobutanecarbonyl(1-CF3) = O=C(C1(C(F)(F)F)CCC1)*; X88 = CC(C)c1ccc(Cl)cc1C[C@@H](C(=O)[*:2])N(C)[*:1]; cBuCO(3,3-F2-1-CF3) = O=C(C1(C(F)(F)F)CC(F)(F)C1)*; Pro(trans-4-F) = O=C(O)[C@@H]1C[C@@H](F)CN1; Gly(cPr) = N[C@H](C(=O)O)C1CC1

In patent US20240408169A1 (priority 2023, published 2024) one finds IC50 and GI50 data, which are given here for twelve compounds.

The target of one assay is T1, CyclinA2/CDK2 (Homo sapiens, UniProt P20248).
T1 construct: purchased CRELUX Protein Services
In words: Fluorescence Polarization (FP) competitive binding assay, Cyclin A2/Cdk2.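 Further: plates equilibrated two hours at room temperature before polarization reading, IC50 fitted from eight-concentration compound titration curves.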 To be noted: 8 nM Cyclin A2/Cdk2, 2 nM FAM probe; average of 2-3 independent experiments; read-out: Cyclin A FP IC50. For orientation: In fluorescence polarisation assays a small probe gives low polarisation when free and higher when bound to something large.

The next assay relates to WI-38 cells. Put plainly: MTT proliferation assay, WI-38.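 Further: Eight- or ten-point dilution series, with exposure length chosen to span about three to four cell doublings.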 It is filed as cell-based. Conditions: 3 days compound exposure, 1:3 serial dilution starting at 10 μM. (Formazan colour is commonly taken as a measure of viable cells.)
Another assay concerns the target T2, CyclinE1/CDK2 (Homo sapiens, UniProt P24864).
T2 construct: purchased Eurofins, discovery 14-475
In words: Fluorescence Polarization (FP) competitive binding assay, Cyclin E1/Cdk2.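 Further: readings taken after two-hour equilibration at room temperature in HEPES buffer with NaCl, DTT, NP-40 and BSA, IC50 fitted from eight-concentration serial dilution series.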 To be noted: 10 nM Cyclin E1/Cdk2, 2 nM FAM probe; average of 2-3 independent experiments; read-out: Cyclin E FP IC50.

A further assay relates to NCI-H1048 cells. In words: MTT proliferation assay, NCI-H1048.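 Further: Dose-response in 96-well plates over 8 or 10 concentration points, with exposure spanning 3-4 cell doublings.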 It is filed as cell-based. Conditions: 5 days compound exposure, 1:3 serial dilution starting at 10 μM.
The next assay relates to OVCAR3 cells. Put plainly: MTT proliferation assay, OVCAR3.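 Further: compound given as an 8- or 10-point series, one day after plating, with exposure covering roughly 3-4 cell doublings.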 It is filed as cell-based. Conditions: 5 days compound exposure, 1:3 serial dilution starting at 10 μM.
For the next assay, the target named is T3, CyclinB1/CDK1 (Homo sapiens, UniProt P14635).
T3 construct: purchased Eurofins, discovery 14-450
Put plainly: Fluorescence Polarization (FP) competitive binding assay, Cyclin B1/Cdk1.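 Further: fluorescence polarization read after equilibration at room temperature, with IC50 taken from serially diluted dose-response curves.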 Conditions: 10 nM Cyclin B1/Cdk1, 2 nM FAM probe; average of 2-3 independent experiments; read-out: Cyclin B FP IC50.

One may read the IC50 as the concentration that inhibits the measured activity by half. The GI50 is the concentration giving 50% growth inhibition. A low value points to more potent growth inhibition. As to `COCCn1cc(-c2ccc(Cl)cc2C[C@H]2C(=O)NCCCCC=CC[C@H](N(C)C(=O)[C@@H](NC(=O)[C@@H]3C[C@@H](F)CN3C(=O)C3(C(F)(F)F)CC(F)(F)C3)C3CC3)C(=O)N[C@@H](CC(C)C)C(=O)N2C)cn1` [Example 43], the IC50 is 0.04 µM on CyclinA2/CDK2, 0.37 µM at CyclinE1/CDK2 and 0.02 µM at CyclinB1/CDK1. Further, the GI50 with WI-38 cells came out at 8.57 µM; in the assay with NCI-H1048 cells, 0.03 µM; in the assay on OVCAR3 cells, 0.04 µM.
For `COCCn1cc(-c2ccc(Cl)cc2C[C@H]2C(=O)N(C)CCCCC=CC[C@H](N(C)C(=O)[C@@H](NC(=O)[C@@H]3C[C@@H](F)CN3C(=O)C3(C(F)(F)F)CC(F)(F)C3)C3CC3)C(=O)N[C@@H](CC(C)C)C(=O)N2C)cn1` [Example 44], the figures for the IC50 at CyclinA2/CDK2, on CyclinE1/CDK2 and at CyclinB1/CDK1 were 0.03 µM, 0.27 µM and 0.02 µM, respectively. Further, the GI50 with WI-38 cells is 6.6 µM; in the assay with NCI-H1048 cells it was 0.02 µM; with OVCAR3 cells, 0.04 µM.
As to `CC(C)C[C@@H]1NC(=O)[C@@H](N(C)C(=O)[C@@H](NC(=O)[C@@H]2C[C@@H](F)CN2C(=O)C2(C(F)(F)F)CC(F)(F)C2)C2CC2)CC=CCCCCN(C)C(=O)[C@H](Cc2cc(F)ccc2C2=CCC(O)CC2)N(C)C1=O` (stereo partly drawn) [Example 47], the IC50 on CyclinA2/CDK2 is 0.04 µM; on CyclinE1/CDK2, 0.8 µM; at CyclinB1/CDK1, 0.02 µM. Moreover, the GI50 in the assay on WI-38 cells is 12.9 µM; in the assay with NCI-H1048 cells it was 0.03 µM; with OVCAR3 cells it was 0.13 µM.
In the case of `CC(C)C[C@@H]1NC(=O)[C@@H](N(C)C(=O)[C@@H](NC(=O)[C@@H]2C[C@@H](F)CN2C(=O)C2(C(F)(F)F)CCC2)C2CC2)CC=CCCCCN(C)C(=O)[C@H](Cc2cc(Cl)ccc2Cl)N(C)C1=O` [Example 48], the IC50 at CyclinA2/CDK2 turned out to be 0.08 µM; at CyclinE1/CDK2, 0.13 µM; on CyclinB1/CDK1, 0.02 µM. Also, the GI50 with WI-38 cells turned out to be 15.8 µM; in the assay on NCI-H1048 cells it was 0.04 µM; with OVCAR3 cells it was 0.05 µM.
Take `CC(C)C[C@@H]1NC(=O)[C@@H](N(C)C(=O)[C@@H](NC(=O)[C@@H]2C[C@@H](F)CN2C(=O)C2(C(F)(F)F)CC(F)(F)C2)C2CC2)CCCCCCCN(C)C(=O)[C@H](Cc2cc(Cl)ccc2-c2cnn(C)c2)N(C)C1=O` [Example 49] ({cBuCO(3,3-F2-1-CF3)}-[Pro(trans-4-F)][Gly(cPr)][NMehhhLys(Me)]L[X22]; lactam 3-C): the IC50 at CyclinA2/CDK2 came out at 0.02 µM; on CyclinE1/CDK2, 0.35 µM; at CyclinB1/CDK1, 0.02 µM. Moreover, the values for the GI50 with WI-38 cells, in the assay with NCI-H1048 cells and in the assay with OVCAR3 cells were 11.5 µM, 0.01 µM and 0.01 µM, respectively.
Regarding `CC(C)C[C@@H]1NC(=O)[C@@H](N(C)C(=O)[C@@H](NC(=O)[C@@H]2C[C@@H](F)CN2C(=O)C2(C(F)(F)F)CC(F)(F)C2)C2CC2)CCCCCCCN(C)C(=O)[C@H](Cc2cc(Cl)ccc2C2=CCOCC2)N(C)C1=O` [Example 51] ({cBuCO(3,3-F2-1-CF3)}-[Pro(trans-4-F)][Gly(cPr)][NMehhhLys(Me)]L[X104]; lactam 3-C), the IC50 on CyclinA2/CDK2 stood at 0.02 µM; on CyclinE1/CDK2, 0.89 µM; on CyclinB1/CDK1, 0.02 µM. Also, the GI50 with WI-38 cells worked out at 18.8 µM; with NCI-H1048 cells it was 0.01 µM; in the assay on OVCAR3 cells, 0.01 µM.
Take `CC(=O)N1CCC(c2ccc(Cl)cc2C[C@H]2C(=O)N(C)CCCCCCC[C@H](N(C)C(=O)[C@@H](NC(=O)[C@@H]3C[C@@H](F)CN3C(=O)C3(C(F)(F)F)CC(F)(F)C3)C3CC3)C(=O)N[C@@H](CC(C)C)C(=O)N2C)CC1` [Example 52] ({cBuCO(3,3-F2-1-CF3)}-[Pro(trans-4-F)][Gly(cPr)][NMehhhLys(Me)]L[X84]; lactam 3-C): the IC50 on CyclinA2/CDK2 came out at 0.04 µM; on CyclinE1/CDK2 it was 1.13 µM; on CyclinB1/CDK1, 0.02 µM. Besides, the GI50 was found to be 13.1 µM in the assay on WI-38 cells, 0.01 µM with NCI-H1048 cells and 0.01 µM in the assay on OVCAR3 cells.
For the compound `CCOC(=O)N1CC=C(c2ccc(Cl)cc2C[C@H]2C(=O)NCCCCC=CC[C@H](N(C)C(=O)[C@@H](NC(=O)[C@@H]3C[C@@H](F)CN3C(=O)C3(C(F)(F)F)CC(F)(F)C3)C3CC3)C(=O)N[C@@H](CC(C)C)C(=O)N2C)CC1` [Example 53, Ethyl 4-(4-chloro-2-(((3S,6S,9S)-9-((S)-2-cyclopropyl-2-((2S,4R)-1-(3,3-difluoro-1-(trifluoromethyl)cyclobutane-1-carbonyl)-4-fluoropyrrolidine-2-carboxamido)-N-methylacetamido)-6-isobutyl-4-methyl-2,5,8-trioxo-1,4,7-triazacyclohexadec-11-en-3-yl)methyl)phenyl)-3,6-dihydropyridine-1 (2H)-carboxylate], the IC50 is 0.09 µM at CyclinA2/CDK2, 12.4 µM on CyclinE1/CDK2 and 0.02 µM on CyclinB1/CDK1. The GI50 in the assay on WI-38 cells was 4.5 µM; with NCI-H1048 cells, 0.18 µM; in the assay with OVCAR3 cells, 0.18 µM.
Regarding `CC(=O)NC1CC=C(c2ccc(Cl)cc2C[C@H]2C(=O)N(C)CCCCCCC[C@H](N(C)C(=O)[C@@H](NC(=O)[C@@H]3C[C@@H](F)CN3C(=O)C3(C(F)(F)F)CC(F)(F)C3)C3CC3)C(=O)N[C@@H](CC(C)C)C(=O)N2C)CC1` (stereo partly drawn) [Example 60] ({cBuCO(3,3-F2-1-CF3)}-[Pro(trans-4-F)][Gly(cPr)][NMehhhLys(Me)]L[X100]; lactam 3-C), the values for the IC50 at CyclinA2/CDK2, on CyclinE1/CDK2 and on CyclinB1/CDK1 were 0.02 µM, 0.74 µM and 0.02 µM, respectively. Besides, the GI50 in the assay with WI-38 cells stood at 5.72 µM; in the assay with NCI-H1048 cells it was 0.01 µM; in the assay on OVCAR3 cells, 0.01 µM.
In the case of `CC(C)C[C@@H]1NC(=O)[C@@H](N(C)C(=O)[C@@H](NC(=O)[C@@H]2C[C@@H](F)CN2C(=O)C2(C(F)(F)F)CC(F)(F)C2)C2CC2)CCCCCCCNC(=O)[C@H](Cc2cc(Cl)ccc2C(C)C)N(C)C1=O` [Example 63] ({cBuCO(3,3-F2-1-CF3)}-[Pro(trans-4-F)][Gly(cPr)][NMe(hhhLys)]L[X88]; lactam 3-C), the IC50 came to 0.12 µM at CyclinA2/CDK2, 3.51 µM at CyclinE1/CDK2 and 0.02 µM at CyclinB1/CDK1. Also, the GI50 is 3.17 µM with WI-38 cells, 0.11 µM with NCI-H1048 cells and 0.24 µM with OVCAR3 cells.
In the case of `CC(C)C[C@@H]1NC(=O)[C@@H](N(C)C(=O)[C@@H](NC(=O)[C@@H]2C[C@@H](F)CN2C(=O)C2(C(F)(F)F)CC(F)(F)C2)C2CC2)CCCCCCCN(C)C(=O)[C@H](Cc2cc(F)ccc2-c2cnn(C3CC3)c2)N(C)C1=O` [Example 68] ({cBuCO(3,3-F2-1-CF3)}-[Pro(trans-4-F)][Gly(cPr)][NMehhhLys(Me)]L[X26]; lactam 3-C), the IC50 turned out to be 0.02 µM at CyclinA2/CDK2, 0.12 µM at CyclinE1/CDK2 and 0.02 µM on CyclinB1/CDK1. Further, the GI50 in the assay on WI-38 cells was 12.8 µM; in the assay with NCI-H1048 cells, 0.01 µM; in the assay on OVCAR3 cells, 0.01 µM.
`CC(C)C[C@@H]1NC(=O)[C@@H](N(C)C(=O)[C@@H](NC(=O)[C@@H]2C[C@@H](F)CN2C(=O)C2(C(F)(F)F)CCC2)C2CC2)CCCCCCCN(C)C(=O)[C@H](Cc2cc(F)ccc2-c2cnn(C)c2)N(C)C1=O` [Example 69] ({Cyclobutanecarbonyl(1-CF3)}-[Pro(trans-4-F)][Gly(cPr)][NMehhhLys(Me)]L[X112]; lactam 3-C): the IC50 at CyclinA2/CDK2 came to 0.02 µM; on CyclinE1/CDK2, 0.11 µM; at CyclinB1/CDK1, 0.02 µM. In addition, the GI50 came out at 17.6 µM in the assay with WI-38 cells, 0.01 µM in the assay on NCI-H1048 cells and 0.01 µM in the assay on OVCAR3 cells.
